≈ marks a conversion by molar mass, not a printed value. Calls of active or inactive are those of the source. No cut-off for these calls is given here.
Key:
[1] = system: Mycobacterium tuberculosis; test: Antimycobacterial activity against Mycobacterium tuberculosis H37Rv in 7H12 medium by microplate alamar blue assay; format: functional
[2] = system: Mycobacterium tuberculosis; test: Antimycobacterial activity against Mycobacterium tuberculosis H37Rv in GAS medium by microplate alamar blue assay; format: functional
[3] = system: Vero; test: Cytotoxicity against African green monkey Vero cells; format: cell-based; settings: chlorocebus sabaeus
[4] = system: Mycobacterium tuberculosis; test: Antimycobacterial activity against non-replicating Mycobacterium tuberculosis H37Rv by low oxygen recovery assay; format: functional, organism-based
[5] = system: Mycobacterium tuberculosis; test: Antimycobacterial activity against Mycobacterium tuberculosis H37Rv; format: functional

Row | Structure (SMILES) | MIC [1] [µM] | MIC [2] [µM] | Activity [3] | Activity [4] | MIC [5] [ng/mL]
1 | C[C@H]1COC2(CCN(S(=O)(=O)c3cc(Br)cc(C(F)(F)F)c3)CC2)O1 | > 10 |  |  |  | 
2 | C[C@H]1COC2(CCN(S(=O)(=O)c3cc(-c4ccccn4)cc(C(F)(F)F)c3)CC2)O1 | > 50 | 49.3 (≈ 21.8 µg/mL) |  |  | 
3 | C[C@H]1COC2(CCN(S(=O)(=O)c3cc([N+](=O)[O-])cc(C(F)(F)F)c3)CC2)O1 | 6.99 (≈ 2.87 µg/mL) | 10.2 (≈ 4.19 µg/mL) | Toxic | Active | 
4 | C[C@H]1COC2(CCC(C(=O)Nc3cccc(C(F)(F)F)c3)CC2)O1 (stereo partly drawn) | > 50 | 17.9 (≈ 6.15 µg/mL) |  |  | 
5 | C[C@H]1COC2(CCN(S(=O)(=O)c3cc(-c4cccc[n+]4[O-])cc(C(F)(F)F)c3)CC2)O1 | > 64 | > 64 |  |  | 
6 | C[C@H]1COC2(CCC(C(=O)Nc3cc([N+](=O)[O-])cc([N+](=O)[O-])c3)CC2)O1 (stereo partly drawn) | 47.9 (≈ 17.5 µg/mL) | 22.6 (≈ 8.26 µg/mL) |  |  | 
7 | C[C@H]1COC2(CCN(c3nc(=O)c4cc(C(F)(F)F)cc([N+](=O)[O-])c4s3)CC2)O1 [BTZ-043] | < 0.02 | < 0.02 |  |  | 1 (≈ 2.32 nM)
8 | C[C@H]1COC2(CCN(S(=O)(=O)c3cc([N+](=O)[O-])cc([N+](=O)[O-])c3)CC2)O1 | 1.53 (≈ 0.593 µg/mL) | 2.05 (≈ 0.794 µg/mL) | Non-toxic | Active | 
9 | C[C@H]1COC2(CCC(C(=O)Nc3cc([N+](=O)[O-])cc(C(F)(F)F)c3)CC2)O1 (stereo partly drawn) | 23 (≈ 8.93 µg/mL) | 18.4 (≈ 7.15 µg/mL) |  |  | 
10 | O=C(OCc1ccccc1)c1cc([N+](=O)[O-])cc(C(F)(F)F)c1 | > 50 | 2.03 (≈ 0.66 µg/mL) |  |  | 
11 | O=C(OCc1ccccc1)c1cc([N+](=O)[O-])cc([N+](=O)[O-])c1 | 13 (≈ 3.94 µg/mL) | 0.27 (≈ 0.0816 µg/mL) |  |  | 
12 | C[C@H]1COC2(CCN(S(=O)(=O)c3cc(-c4ccccc4)cc(C(F)(F)F)c3)CC2)O1 | > 64 | 17.4 (≈ 7.68 µg/mL) |  |  | 
